According to US20230263822A1, “MODULATION OF FACTOR 11 EXPRESSION” (Ionis Pharmaceuticals, Inc., priority 2008, published 2023):
pIC50: −log10 of the molar value. Strand notation (5' to 3'): a small letter for the sugar, then the base; units joined by * are phosphorothioate-linked, units joined directly phosphodiester-linked; [ ] holds rarer units or linkages, { } end groups; capitals alone tell only the bases. e = 2'-O-(2-methoxyethyl) (MOE); [5mC] = 5-methylcytosine; d = 2'-deoxy (DNA)

Experiments:
Type in all cases: cell-based
human Factor 11 mRNA [1] = experiment: Antisense inhibition of human Factor 11 in HepG2 cells by microwalk gapmers, lipofectin, 75 nM (Example 3); conditions: HepG2 cells, lipofectin, gapmers targeted to nucleobases 1275 to 1318 of SEQ ID NO: 1
Method in brief: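 HepG2 cells (10,000/well) were transfected via lipofectin with 75 nM 20-mer MOE gapmers (phosphorothioate, 5-methyl-C) for about 24 h. Factor 11 mRNA was measured by qRT-PCR, normalized to RIBOGREEN total RNA, and given as percent inhibition versus untreated cells.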

human Factor 11 mRNA [2] = experiment: Dose-dependent inhibition of human Factor 11 in HepG2 cells, electroporation 123.46-10,000 nM (Example 31); conditions: for Percent inhibition of Factor 11 mRNA at 123.47 nM / Percent inhibition of Factor 11 mRNA at 370.37 nM / pIC50: electroporation; for Percent inhibition of Factor 11 mRNA at 123.47 nM / Percent inhibition of Factor 11 mRNA at 370.37 nM / Percent inhibition of Factor 11 mRNA at 1,111.11 nM / Percent inhibition of Factor 11 mRNA at 3,333.33 nM / Percent inhibition of Factor 11 mRNA at 10,000.0 nM: approx. 16 hours, relative to untreated control cells; for Percent inhibition of Factor 11 mRNA at 1,111.11 nM: electroporation, 1,111.11 nM; for Percent inhibition of Factor 11 mRNA at 3,333.33 nM: electroporation, 3,333.33 nM; for Percent inhibition of Factor 11 mRNA at 10,000.0 nM: electroporation, 10,000.0 nM; for pIC50: Factor 11 mRNA expression
Experimental: Cells were plated at a density of 20,000 cells per well and transfected using electroporation with 123.46 nM, 370.37 nM, 1,111.11 nM, 3,333.33 nM and 10,000 nM concentrations of antisense oligonucleotide, as specified in Table 45. After a treatment period of approximately 16 hours, RNA was isolated from the cells and Factor 11 mRNA levels were measured by quantitative real-time PCR. Human Factor 11 primer probe set RTS 2966 was used to measure mRNA levels. Factor 11 mRNA levels were adjusted according to total RNA content, as measured by RIBOGREEN. Results are presented as percent inhibition of Factor 11, relative to untreated control cells.

human Factor 11 mRNA [3] = experiment: Antisense inhibition of human Factor 11 in HepG2 cells, electroporation, 8,000 nM (Example 30); conditions: electroporation, 8,000 nM antisense oligonucleotide
Experimental: These microwalk gapmers were tested in vitro. Cultured HepG2 cells at a density of 20,000 cells per well were transfected using electroporation with 8,000 nM antisense oligonucleotide. After a treatment period of approximately 24 hours, RNA was isolated from the cells and Factor 11 mRNA levels were measured by quantitative real-time PCR. Factor 11 mRNA levels were adjusted according to total RNA content, as measured by RIBOGREEN. Results are presented as percent inhibition of Factor 11, relative to untreated control cells.
The chimeric antisense oligonucleotides in Table 44 were designed as 5-10-5 MOE, 5-8-5 and 6-8-6 MOE gapmers. The first two listed gapmers in Table 44 are the original gapmers (ISIS 416850 and ISIS 416858) from which ISIS 445493-445543 were designed via microwalk, and are designated by an asterisk. The 5-10-5 gapmers are 20 nucleotides in length, wherein the central gap segment is comprised of ten 2′-deoxynucleotides and is flanked on both sides (in the 5′ and 3′ directions) by wings comprising five nucleotides each. The 5-8-5 gapmers are 18 nucleotides in length, wherein the central gap segment is comprised of eight 2′-deoxynucleotides and is flanked on both sides (in the 5′ and 3′ directions) by wings comprising five nucleotides each. The 6-8-6 gapmers are 20 nucleotides in length, wherein the central gap segment is comprised of eight 2′-deoxynucleotides and is flanked on both sides (in the 5′ and 3′ directions) by wings comprising six nucleotides each. For each of the motifs (5-10-5, 5-8-5 and 6-8-6), each nucleotide in the 5′ wing segment and each nucleotide in the 3′ wing segment has a 2′-MOE modification. The internucleoside linkages throughout each gapmer are phosphorothioate (P=S) linkages. All cytidine residues throughout each gapmer are 5-methylcytidines. “Human Target start site” indicates the 5′-most nucleotide to which the gapmer is targeted in the human sequence. “Human Target stop site” indicates the 3′-most nucleotide to which the gapmer is targeted in the human sequence. Each gapmer listed in Table 44 is targeted to SEQ ID NO: 1 (GENBANK Accession No. NM_000128.3). Each gapmer is Table 44 is also fully cross-reactive with the rhesus monkey Factor 11 gene sequence, designated herein as SEQ ID NO: 274 (exons 1-15 GENBANK Accession No. NW_001118167.1). ‘Rhesus monkey start site’ indicates the 5′-most nucleotide to which the gapmer is targeted in the rhesus monkey sequence. ‘Rhesus monkey stop site’ indicates the 3′-most nucleotide to which the gapmer is targeted to the rhesus monkey sequence.

Substance	% inhibition (human Factor 11 mRNA [1])	Percent inhibition of human Factor 11 mRNA levels (human Factor 11 mRNA [3])	further results
416849 (antisense eG*e[5mC]*eA*e[5mC]*eA*dG*dT*dT*dT*d[5mC]*dT*dG*dG*d[5mC]*dA*eG*eG*e[5mC]*e[5mC]*eT) [compound 416849]	88%	88%	Percent inhibition of Factor 11 mRNA at 123.47 nM (human Factor 11 mRNA [2]): 5%; Percent inhibition of Factor 11 mRNA at 370.37 nM (human Factor 11 mRNA [2]): 5%; Percent inhibition of Factor 11 mRNA at 1,111.11 nM (human Factor 11 mRNA [2]): 26%; Percent inhibition of Factor 11 mRNA at 3,333.33 nM (human Factor 11 mRNA [2]): 57%; Percent inhibition of Factor 11 mRNA at 10,000.0 nM (human Factor 11 mRNA [2]): 68%; pIC50 (human Factor 11 mRNA [2]): 5.57
416853 (antisense eT*eT*eG*eG*eT*dG*d[5mC]*dA*d[5mC]*dA*dG*dT*dT*dT*d[5mC]*eT*eG*eG*e[5mC]*eA) [compound 416853]	91%	84%	–
416854 (antisense eA*eT*eT*eG*eG*dT*dG*d[5mC]*dA*d[5mC]*dA*dG*dT*dT*dT*e[5mC]*eT*eG*eG*e[5mC]) [compound 416854]	90%	86%	–
416855 (antisense e[5mC]*eA*eT*eT*eG*dG*dT*dG*d[5mC]*dA*d[5mC]*dA*dG*dT*dT*eT*e[5mC]*eT*eG*eG) [compound 416855]	87%	85%	–
416857 (antisense e[5mC]*eG*eG*e[5mC]*eA*dT*dT*dG*dG*dT*dG*d[5mC]*dA*d[5mC]*dA*eG*eT*eT*eT*e[5mC]) [compound 416857]	92%	91%	Percent inhibition of Factor 11 mRNA at 123.47 nM (human Factor 11 mRNA [2]): 2%; Percent inhibition of Factor 11 mRNA at 370.37 nM (human Factor 11 mRNA [2]): 20%; Percent inhibition of Factor 11 mRNA at 1,111.11 nM (human Factor 11 mRNA [2]): 35%; Percent inhibition of Factor 11 mRNA at 3,333.33 nM (human Factor 11 mRNA [2]): 62%; Percent inhibition of Factor 11 mRNA at 10,000.0 nM (human Factor 11 mRNA [2]): 72%; pIC50 (human Factor 11 mRNA [2]): 5.64
416862 (antisense eA*eG*e[5mC]*eG*eG*dA*d[5mC]*dG*dG*d[5mC]*dA*dT*dT*dG*dG*eT*eG*e[5mC]*eA*e[5mC]) [compound 416862]	90%	89%	–
416865 (antisense eT*eG*eG*e[5mC]*eA*dG*d[5mC]*dG*dG*dA*d[5mC]*dG*dG*d[5mC]*dA*eT*eT*eG*eG*eT) [compound 416865]	88%	86%	–
445503 (antisense eG*e[5mC]*eA*eT*eT*eG*dG*dT*dG*d[5mC]*dA*d[5mC]*dA*dG*eT*eT*eT*e[5mC]*eT*eG) [compound 445503]	–	89%	Percent inhibition of Factor 11 mRNA at 123.47 nM (human Factor 11 mRNA [2]): 0%; Percent inhibition of Factor 11 mRNA at 370.37 nM (human Factor 11 mRNA [2]): 0%; Percent inhibition of Factor 11 mRNA at 1,111.11 nM (human Factor 11 mRNA [2]): 22%; Percent inhibition of Factor 11 mRNA at 3,333.33 nM (human Factor 11 mRNA [2]): 36%; Percent inhibition of Factor 11 mRNA at 10,000.0 nM (human Factor 11 mRNA [2]): 60%; pIC50 (human Factor 11 mRNA [2]): 5.23
445528 (antisense eA*eT*eT*eG*eG*dT*dG*d[5mC]*dA*d[5mC]*dA*dG*dT*eT*eT*e[5mC]*eT*eG) [compound 445528]	–	73%	–
445529 (antisense e[5mC]*eA*eT*eT*eG*dG*dT*dG*d[5mC]*dA*d[5mC]*dA*dG*eT*eT*eT*e[5mC]*eT) [compound 445529]	–	85%	–
445532 (antisense e[5mC]*eG*eG*e[5mC]*eA*dT*dT*dG*dG*dT*dG*d[5mC]*dA*e[5mC]*eA*eG*eT*eT) [compound 445532]	–	89%	Percent inhibition of Factor 11 mRNA at 123.47 nM (human Factor 11 mRNA [2]): 5%; Percent inhibition of Factor 11 mRNA at 370.37 nM (human Factor 11 mRNA [2]): 12%; Percent inhibition of Factor 11 mRNA at 1,111.11 nM (human Factor 11 mRNA [2]): 39%; Percent inhibition of Factor 11 mRNA at 3,333.33 nM (human Factor 11 mRNA [2]): 60%; Percent inhibition of Factor 11 mRNA at 10,000.0 nM (human Factor 11 mRNA [2]): 70%; pIC50 (human Factor 11 mRNA [2]): 5.70
445533 (antisense eA*e[5mC]*eG*eG*e[5mC]*dA*dT*dT*dG*dG*dT*dG*d[5mC]*eA*e[5mC]*eA*eG*eT) [compound 445533]	–	87%	–
445534 (antisense eG*eA*e[5mC]*eG*eG*d[5mC]*dA*dT*dT*dG*dG*dT*dG*e[5mC]*eA*e[5mC]*eA*eG) [compound 445534]	–	82%	–
445535 (antisense eG*eG*eA*e[5mC]*eG*dG*d[5mC]*dA*dT*dT*dG*dG*dT*eG*e[5mC]*eA*e[5mC]*eA) [compound 445535]	–	83%	–
445536 (antisense e[5mC]*eG*eG*eA*e[5mC]*dG*dG*d[5mC]*dA*dT*dT*dG*dG*eT*eG*e[5mC]*eA*e[5mC]) [compound 445536]	–	82%	–
445537 (antisense eG*e[5mC]*eG*eG*eA*d[5mC]*dG*dG*d[5mC]*dA*dT*dT*dG*eG*eT*eG*e[5mC]*eA) [compound 445537]	–	78%	–
445538 (antisense eA*eG*e[5mC]*eG*eG*dA*d[5mC]*dG*dG*d[5mC]*dA*dT*dT*eG*eG*eT*eG*e[5mC]) [compound 445538]	–	80%	–
445539 (antisense e[5mC]*eA*eG*e[5mC]*eG*dG*dA*d[5mC]*dG*dG*d[5mC]*dA*dT*eT*eG*eG*eT*eG) [compound 445539]	–	79%	–
445540 (antisense eG*e[5mC]*eA*eG*e[5mC]*dG*dG*dA*d[5mC]*dG*dG*d[5mC]*dA*eT*eT*eG*eG*eT) [compound 445540]	–	74%	–
445541 (antisense eG*eG*e[5mC]*eA*eG*d[5mC]*dG*dG*dA*d[5mC]*dG*dG*d[5mC]*eA*eT*eT*eG*eG) [compound 445541]	–	80%	–
445542 (antisense eT*eG*eG*e[5mC]*eA*dG*d[5mC]*dG*dG*dA*d[5mC]*dG*dG*e[5mC]*eA*eT*eT*eG) [compound 445542]	–	83%	–
445543 (antisense e[5mC]*eT*eG*eG*e[5mC]*dA*dG*d[5mC]*dG*dG*dA*d[5mC]*dG*eG*e[5mC]*eA*eT*eT) [compound 445543]	–	74%	–
